Experimental data published in patent publication US20230012172A1, “COMPOSITIONS AND METHODS FOR TREATMENT OF PLATINUM-BASED CHEMOTHERAPEUTIC RESISTANT TUMORS” (The George Washington University, priority 2020, published 2023).

Assays:
SKOV3 CR cells = experiment: Cell viability assay (SRB) in SKOV3 CR cells; format: cell-based; conditions: SKOV3 CR cells
Method: Cell culture and resistance cell line establishment. IGROV1 cells, U2OS (HTB-96; ATCC), HEK293T (CRL-11268; ATCC) and SKOV3 cells (HTB-77; ATCC) were cultured at 37° C. in DMEM with 10% Fetal Bovine Serum (FBS). PEO1 (10032308; Sigma-Aldrich), PEO4 (10032309; Sigma-Aldrich), PEO14 (10032311; […] Sigma-Aldrich) were cultured at 37° C. in RPMI-1640 with 10% FBS. OV90 (CRL-11732; […] All the cells were cultured at in a humidified incubator with 5% CO2 atmosphere. Cisplatin resistant cell lines, including SKOV3 CR, IGROV1 CR and OV90 CR, were generated using an approach similar to that reported in Zhou et al., (2018) Oncogene 37, 3981-3997, the disclosure of which is incorporated herein in its entirety. Cell viability assay. Cells were seeded at 3,000 cells/well in 96-well plates were treated with drugs, followed by incubation for 48 hours, after which cell viability was detected using Sulforhodamine B (SRB) assay (64). Absorbance at 510 nm was detected using a SpectraMax Reader (Molecular Devices) and analyzed with SoftMax Analysis Software (Molecular Devices). Combinational index (CI) values were calculated using CompuSyn software.

IGROV1 CR cells = experiment: Cell viability assay (SRB) in IGROV1 CR cells; format: cell-based, human; conditions: 150 nM UA, IGROV1 CR cells
Method: Cell culture and resistance cell line establishment. IGROV1 cells, U2OS (HTB-96; ATCC), HEK293T (CRL-11268; ATCC) and SKOV3 cells (HTB-77; ATCC) were cultured at 37° C. in DMEM with 10% Fetal Bovine Serum (FBS). PEO1 (10032308; Sigma-Aldrich), PEO4 (10032309; Sigma-Aldrich), PEO14 (10032311; Sigma-Aldrich) and PE023 cells (10032313; Sigma-Aldrich) were cultured at 37° C. in RPMI-1640 with 10% FBS. OV90 (CRL-11732; ATCC) was cultured in medium containing 1:1 MCDB 105 (Sigma) and M199 (Sigma) supplemented with 10% FBS at 37 ° C. All the cells were cultured at in a humidified incubator with 5% CO2 atmosphere. Cisplatin resistant cell lines, including SKOV3 CR, IGROV1 CR and OV90 CR, were generated using an approach similar to that reported in Zhou et al., (2018) Oncogene 37, 3981-3997, the disclosure of which is incorporated herein in its entirety.
Cell viability assay. Cells were seeded at 3,000 cells/well in 96-well plates were treated with drugs, followed by incubation for 48 hours, after which cell viability was detected using Sulforhodamine B (SRB) assay (64). Absorbance at 510 nm was detected using a SpectraMax Reader (Molecular Devices) and analyzed with SoftMax Analysis Software (Molecular Devices). Combinational index (CI) values were calculated using CompuSyn software.

SENP1 = target: T1, SENP1 (Homo sapiens, UniProt Q9P0U3); experiment: Cellular thermal shift assay; conditions: IGROV1 cells, higher temperature
T1 sequence (Q9P0U3 1-644): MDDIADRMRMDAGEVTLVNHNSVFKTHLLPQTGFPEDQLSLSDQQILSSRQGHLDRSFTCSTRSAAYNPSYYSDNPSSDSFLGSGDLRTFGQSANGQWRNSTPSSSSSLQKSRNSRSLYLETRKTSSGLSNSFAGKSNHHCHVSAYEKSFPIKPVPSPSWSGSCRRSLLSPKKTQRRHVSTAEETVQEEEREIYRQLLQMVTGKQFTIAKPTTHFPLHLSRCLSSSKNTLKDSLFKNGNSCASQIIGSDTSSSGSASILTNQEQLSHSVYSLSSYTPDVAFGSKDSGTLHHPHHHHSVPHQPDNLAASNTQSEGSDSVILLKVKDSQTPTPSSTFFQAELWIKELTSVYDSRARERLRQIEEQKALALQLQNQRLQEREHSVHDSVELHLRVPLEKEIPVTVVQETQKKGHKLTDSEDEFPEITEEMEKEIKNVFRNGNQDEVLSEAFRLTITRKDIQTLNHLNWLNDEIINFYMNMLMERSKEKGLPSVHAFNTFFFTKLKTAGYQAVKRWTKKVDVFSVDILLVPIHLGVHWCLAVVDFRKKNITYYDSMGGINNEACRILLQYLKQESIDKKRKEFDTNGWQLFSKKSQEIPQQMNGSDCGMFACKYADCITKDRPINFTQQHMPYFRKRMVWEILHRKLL
Method: To determine whether UA binds to SENP1 directly, cellular thermal shift assays were performed in which a small molecule binds to a protein resulting in thermal stabilization of the protein.

Compound | re-sensitization to cisplatin (SKOV3 CR cells) | synergistic effects with cisplatin (combination index) (SKOV3 CR cells) | CI value with cisplatin, cell survival (IGROV1 CR cells) | SENP1 protein thermal stabilization versus DMSO (SENP1)
CC1(C)CC[C@]2(C(=O)O)CC[C@]3(C)C(=CC[C@@H]4[C@@]5(C)CC[C@H](O[C@@H]6O[C@H](C(=O)O)[C@@H](O)[C@H](O[C@@H]7OC[C@@H](O)[C@H](O)[C@H]7O)[C@H]6O)C(C)(C)[C@@H]5CC[C@]43C)[C@@H]2C1 [Mc, Momordin Ic] | re-sensitized | synergy | – | –
C[C@H]1[C@H](C)CC[C@]2(C(=O)O)CC[C@]3(C)C(=CC[C@@H]4[C@@]5(C)CC[C@H](O)C(C)(C)[C@@H]5CC[C@]43C)[C@H]12 [UA, ursolic acid] | – | – | < 1 | stabilized
